In article PMC2815200 (Biochemical pharmacology, 2009):

Tests used:
human A3AR = biological target: T1, human A3AR (Homo sapiens, UniProt P0DMS8); assay type: binding; conditions: [^125I]MRS5127 0.2 nM, 2 h room temperature, Cheng-Prusoff
T1 sequence (P0DMS8 1-318): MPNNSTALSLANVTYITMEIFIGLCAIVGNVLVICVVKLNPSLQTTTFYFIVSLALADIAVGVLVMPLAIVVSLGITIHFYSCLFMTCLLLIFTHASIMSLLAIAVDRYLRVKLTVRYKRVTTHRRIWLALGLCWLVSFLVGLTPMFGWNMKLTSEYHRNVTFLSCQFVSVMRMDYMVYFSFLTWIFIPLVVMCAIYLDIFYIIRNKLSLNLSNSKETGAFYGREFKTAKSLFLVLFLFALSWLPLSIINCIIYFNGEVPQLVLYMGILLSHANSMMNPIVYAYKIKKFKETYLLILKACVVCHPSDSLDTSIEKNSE

mouse A3AR = biological target: T2, mouse A3AR (Mus musculus, UniProt Q61618); test: cAMP accumulation assay, HEK 293 cells expressing mouse A3AR; assay type: cell-based; conditions: forskolin 10 μM, 15 min, Ro 20-1724 20 μM
T2 sequence (Q61618 1-319): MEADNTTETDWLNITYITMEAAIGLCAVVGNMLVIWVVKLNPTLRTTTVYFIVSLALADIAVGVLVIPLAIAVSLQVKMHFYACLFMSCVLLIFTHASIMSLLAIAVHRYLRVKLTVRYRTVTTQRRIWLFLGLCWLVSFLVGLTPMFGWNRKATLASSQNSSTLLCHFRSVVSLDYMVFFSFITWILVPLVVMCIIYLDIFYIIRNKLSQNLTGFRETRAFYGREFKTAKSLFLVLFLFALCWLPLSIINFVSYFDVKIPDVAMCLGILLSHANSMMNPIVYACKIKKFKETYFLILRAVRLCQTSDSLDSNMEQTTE

rabbit A3AR = biological target: T3, rabbit A3AR (Oryctolagus cuniculus, UniProt O02667); test: cAMP accumulation assay, HEK 293 cells expressing rabbit A3AR; assay type: cell-based; conditions: forskolin 10 μM, 15 min, Ro 20-1724 20 μM
T3 sequence (O02667 1-319): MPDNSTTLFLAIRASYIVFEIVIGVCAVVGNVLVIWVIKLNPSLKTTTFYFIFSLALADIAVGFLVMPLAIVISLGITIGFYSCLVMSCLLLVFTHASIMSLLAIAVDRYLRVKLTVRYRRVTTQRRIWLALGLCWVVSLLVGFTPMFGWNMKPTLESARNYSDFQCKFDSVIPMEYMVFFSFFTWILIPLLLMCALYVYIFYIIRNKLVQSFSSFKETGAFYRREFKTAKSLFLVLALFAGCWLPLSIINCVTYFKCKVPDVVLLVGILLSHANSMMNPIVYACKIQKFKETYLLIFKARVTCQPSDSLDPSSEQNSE

dog A3AR = biological target: T4, dog A3AR (Canis lupus familiaris, UniProt Q28309); test: cAMP accumulation assay, HEK 293 cells expressing dog A3AR; assay type: cell-based; conditions: forskolin 10 μM, 15 min, Ro 20-1724 20 μM
T4 sequence (Q28309 1-314): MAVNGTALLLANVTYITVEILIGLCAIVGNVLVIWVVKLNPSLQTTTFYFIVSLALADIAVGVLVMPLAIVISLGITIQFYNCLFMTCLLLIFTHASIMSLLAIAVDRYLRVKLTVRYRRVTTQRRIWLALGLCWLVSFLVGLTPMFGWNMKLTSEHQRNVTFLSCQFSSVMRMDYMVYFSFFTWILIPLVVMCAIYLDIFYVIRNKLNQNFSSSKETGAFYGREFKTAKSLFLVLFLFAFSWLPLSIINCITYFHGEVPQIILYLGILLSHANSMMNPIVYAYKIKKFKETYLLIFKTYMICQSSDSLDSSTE

hA3AR [1] = conditions: cited from earlier work
hA3 = conditions: read-out: affinity; hA3 ref 25, 26; cited from earlier work
hA3AR [2] = conditions: CHO cell membranes expressing hA3AR ref 25; cited from earlier work
mouse A2BAR = biological target: T5, mouse A2BAR (Mus musculus, UniProt Q60614); test: Competition binding of MRS5127 at mouse A2BAR; conditions: [^3H]MRS1754 2 nM, HEK 293 membranes
T5 sequence (Q60614 1-332): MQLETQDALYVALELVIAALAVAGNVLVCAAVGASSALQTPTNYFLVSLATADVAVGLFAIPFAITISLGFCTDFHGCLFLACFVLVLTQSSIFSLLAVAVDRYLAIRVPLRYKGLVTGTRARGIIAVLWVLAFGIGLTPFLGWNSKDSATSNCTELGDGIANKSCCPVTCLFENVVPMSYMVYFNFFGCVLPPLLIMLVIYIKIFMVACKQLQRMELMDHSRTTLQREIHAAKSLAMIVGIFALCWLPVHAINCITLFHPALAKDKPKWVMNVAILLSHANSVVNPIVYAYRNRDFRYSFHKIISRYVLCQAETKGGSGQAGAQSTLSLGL

mouse A2AAR = mouse A2AAR (Mus musculus, UniProt Q60613); test: Competition binding of MRS5127 at mouse A2AAR; conditions: [^3H]CGS21680 10 nM, HEK 293 membranes
Sequence of mouse A2AAR (Q60613 whole entry): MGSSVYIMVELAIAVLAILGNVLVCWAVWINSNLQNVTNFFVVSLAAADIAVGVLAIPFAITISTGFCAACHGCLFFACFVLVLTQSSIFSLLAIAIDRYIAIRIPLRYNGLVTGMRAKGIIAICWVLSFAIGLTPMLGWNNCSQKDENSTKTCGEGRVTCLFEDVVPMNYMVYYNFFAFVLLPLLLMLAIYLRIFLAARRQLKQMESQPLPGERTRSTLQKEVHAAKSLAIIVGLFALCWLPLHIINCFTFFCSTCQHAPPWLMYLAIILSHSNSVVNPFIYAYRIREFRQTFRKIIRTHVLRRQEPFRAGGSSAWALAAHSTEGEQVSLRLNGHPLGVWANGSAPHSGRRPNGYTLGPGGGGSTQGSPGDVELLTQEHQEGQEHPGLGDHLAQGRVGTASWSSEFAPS

mA1AR = biological target: T6, mA1AR (Mus musculus, UniProt Q60612); test: Competition binding of MRS5127 at mouse A1AR
T6 sequence (Q60612 1-326): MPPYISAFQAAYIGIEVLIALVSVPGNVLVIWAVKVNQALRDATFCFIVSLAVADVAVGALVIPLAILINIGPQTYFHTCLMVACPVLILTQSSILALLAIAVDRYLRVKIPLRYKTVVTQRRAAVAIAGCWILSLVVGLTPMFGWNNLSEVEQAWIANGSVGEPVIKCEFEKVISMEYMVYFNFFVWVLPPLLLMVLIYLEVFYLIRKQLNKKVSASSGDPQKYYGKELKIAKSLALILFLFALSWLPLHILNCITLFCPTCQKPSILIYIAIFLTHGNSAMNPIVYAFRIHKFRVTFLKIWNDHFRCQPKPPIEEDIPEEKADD

In the case of `CCCOC(=O)c1c(-c2ccccc2)nc(CC)c(C(=O)SCC)c1CCC` [MRS1523, 5-propyl-2-ethyl-4-propyl-3-(ethylsulfanylcarbonyl)-6-phenylpyridine-5-carboxylate], the Ki (human A3AR) is reported as 246 ± 66 nM.

`O[C@@H]1[C@H](O)[C@@H]2C[C@@H]2[C@H]1n1cnc2c(NCc3cccc(I)c3)nc(Cl)nc21` [MRS5127, (1′R,2′R,3′S,4′R,5′S)-4′-[2-chloro-6-(3-iodobenzylamino)-purine]-2′,3′-O-dihydroxybicyclo-[3.1.0]hexane] showed an EC50 (mouse A3AR) of 1.34 ± 0.07 nM, an EC50 (rabbit A3AR) of 1.53 ± 0.59 nM and an EC50 (dog A3AR) of 2.79 ± 0.41 nM. For the same compound, the “efficacy in comparison to NECA” value (hA3AR [1]; cAMP accumulation, human receptors ref 26) was “roughly half efficacy”, the “efficacy compared to the full agonist NECA” value (hA3AR [1]; cAMP, transfected cells ref 26) was 45% and the Ki (hA3) was 1.44 ± 0.6 nM. The “functional character by Schild analysis of [^35S]GTPγS binding” value (hA3AR [2]) was “antagonist”, the “binding to mouse A2BAR” value (mouse A2BAR) was “did not bind” and the “binding to mouse A2AAR” value (mouse A2AAR) was “did not bind”. For the same compound, the “affinity for mA1AR lower compared to the mA3AR” value (mA1AR; mA1AR versus mA3AR) was ~ 30 fold and the Ki (mA1AR; read-out: affinity (Ki value), [^125I]I-AB-MECA 0.3 nM, HEK 293 membranes) was 140 ± 26 nM.
